These results are taken from patent publication US11524966B1 (Valo Early Discovery, Inc., priority 2017, dated 2022).

This test concerns the target T1, USP28 (His-tagged USP28-FL-mammalian) (Homo sapiens, UniProt Q96RU2).
T1 construct: Expression of USP28 (1-1077)-TEV-6*His (pTT5 vector); made in house; host or cells: Expi293f cells (pTT5 vector)
T1 sequence (Q96RU2 1-1077): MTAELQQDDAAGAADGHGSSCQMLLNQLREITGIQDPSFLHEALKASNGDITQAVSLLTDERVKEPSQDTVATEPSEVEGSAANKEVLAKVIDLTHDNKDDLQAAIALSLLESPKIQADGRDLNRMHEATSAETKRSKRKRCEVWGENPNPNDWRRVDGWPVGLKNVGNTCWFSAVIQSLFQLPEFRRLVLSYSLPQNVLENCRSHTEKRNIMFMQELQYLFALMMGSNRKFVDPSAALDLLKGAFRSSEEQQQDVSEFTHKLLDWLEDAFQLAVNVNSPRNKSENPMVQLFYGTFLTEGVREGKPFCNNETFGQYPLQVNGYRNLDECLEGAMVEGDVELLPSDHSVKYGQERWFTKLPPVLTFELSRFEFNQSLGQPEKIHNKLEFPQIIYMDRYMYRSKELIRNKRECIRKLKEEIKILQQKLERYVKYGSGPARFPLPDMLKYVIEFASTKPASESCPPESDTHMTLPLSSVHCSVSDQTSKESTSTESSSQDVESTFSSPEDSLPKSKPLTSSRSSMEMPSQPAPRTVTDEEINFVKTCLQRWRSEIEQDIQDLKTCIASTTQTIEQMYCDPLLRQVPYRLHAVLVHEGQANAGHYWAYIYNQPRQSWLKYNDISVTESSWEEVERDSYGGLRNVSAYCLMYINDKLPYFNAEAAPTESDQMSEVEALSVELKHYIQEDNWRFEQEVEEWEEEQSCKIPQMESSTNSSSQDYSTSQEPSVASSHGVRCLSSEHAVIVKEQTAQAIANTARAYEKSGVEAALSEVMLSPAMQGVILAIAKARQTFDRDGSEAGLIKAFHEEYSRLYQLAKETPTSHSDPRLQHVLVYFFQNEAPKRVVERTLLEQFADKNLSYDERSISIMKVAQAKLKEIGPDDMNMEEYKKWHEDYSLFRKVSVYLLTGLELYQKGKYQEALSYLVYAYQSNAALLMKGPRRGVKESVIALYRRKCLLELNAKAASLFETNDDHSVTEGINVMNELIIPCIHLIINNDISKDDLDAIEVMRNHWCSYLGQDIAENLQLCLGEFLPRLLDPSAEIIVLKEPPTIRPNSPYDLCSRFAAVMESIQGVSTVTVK
Nature of the test: Ubiquitin-Rhodamine 110 Assay for USP28 Activity, Example A-1(a). Format: biochemical. Particulars: Ubiquitin-Rhodamine 110 assay, format Example A-1(a); read-out: USP28 A-1(a) IC50 range. In short, it runs like this:
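Full-length His-tagged USP28 (1-1077, Expi293F-expressed; […]) was preincubated 30 min with compound (25 μM–1.3 nM, 10-point 3-fold) in 20 mM Tris-HCl pH 8.0, 3 mM BME, 0.03% BGG, 0.01% Triton X-100. Ub-Rh110 (25 nM) was then added for 45 min at room temperature, stopped with citric acid, and read by fluorescence (485/535 nm).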
Turning to `Cc1cnc2c(N)c(C(=O)N[C@H]3CCc4cc(N5CC6CCC(C5)N6)c(C#N)cc4C3)sc2n1` (single isomer, unassigned) [Example 14-8], the IC50 was in the range of 1 to 50 nM.
With `Cc1cnc2c(N)c(C(=O)N[C@@H]3CCc4c(ccc(N5CC6CCC(C5)N6)c4C#N)C3)sc2n1` (single isomer, unassigned) [Example 14-5] the figure was 1 to 50 nM.
With `Cc1ccc2c(N)c(C(=O)N[C@H]3CCc4cc(N5CC6CCC(C5)N6)c(C#N)cc4C3)sc2n1` (single isomer, unassigned) [Example 14-4] the figure was 1 to 50 nM; with `Cc1ccc2c(N)c(C(=O)N[C@H]3CCc4c(ccc(N5CC6CCC(C5)N6)c4C#N)C3)sc2n1` (single isomer, unassigned) [Example 14-2], 50 to 200 nM; with `Cc1ccc2c(N)c(C(=O)N[C@@H]3CCc4cc(N5CC6CCC(C5)N6)c(C#N)cc4C3)sc2n1` (single isomer, unassigned) [Example 14-3], 200 to 2000 nM.
With `Cc1cnc2c(N)c(C(=O)N[C@@H]3CCc4cc(N5CC6CCC(C5)N6)c(C#N)cc4C3)sc2n1` (single isomer, unassigned) [Example 14-7] the figure was 200 to 2000 nM.
Take `Cc1ccc2c(N)c(C(=O)N[C@@H]3CCc4c(ccc(N5CC6CCC(C5)N6)c4C#N)C3)sc2n1` (single isomer, unassigned) [Example 14-1]: the half-inhibitory concentration (IC50) lay within 1 to 50 nM.
The result for `Cc1cnc2c(N)c(C(=O)N[C@H]3CCc4c(ccc(N5CC6CCC(C5)N6)c4C#N)C3)sc2n1` (single isomer, unassigned) [Example 14-6] reads 200 to 2000 nM.
